Experiment [1] is described as follows: Inhibition of HIV-1 integrase strand transfer activity.
Experiment [2] is described as follows: Inhibition of wild type HIV-1 LAI reverse transcriptase.
A short description of experiment [3]: Inhibition of HIV-1 Reverse transcriptase K103N/Y181C double mutant.
A short description of experiment [4]: Inhibition of HIV-1 Reverse transcriptase K103N mutant.
Experiment [5] in a line: Inhibition of HIV-1 Reverse transcriptase L100I/K103N double mutant.

Molecules are shown by their SMILES.

As for `CCc1nc(SC)n(COCc2ccccc2)c1CC1CCCCC1`, the IC50 in experiment [1] is 400 nM.
For the molecule `Cc1cc(/C=C/C#N)cc(C)c1Nc1ncnc(Nc2ccc(C#N)cc2)n1`, the IC50 in experiment [2] was determined as 0.4 nM; in experiment [3], 1 nM; in experiment [4], 0.3 nM.
In experiment [1], `CSc1nc(C(C)C)c(Cc2ccccc2)n1COCc1ccccc1` displayed an IC50 of 3300 nM.
For `Cc1cc(C#N)cc(C)c1Oc1ncnc(Nc2ccc(C#N)cc2)n1`, the concentration for half-maximal inhibition (IC50) is 1.4 nM in experiment [2], 25 nM in experiment [3], 49 nM in experiment [5] and 1.4 nM in experiment [4].
Take `CCOCn1c(SC)nc(C(C)C)c1CC1CCCCC1`: the IC50 in experiment [1] was found to be 250 nM.
As for `Cc1cc(C#N)cc(C)c1Nc1ncnc(Nc2ccc(C#N)cc2)n1`, the IC50 in experiment [2] was 0.4 nM; in experiment [3], 32 nM; in experiment [4] it was 0.4 nM.
`CSc1nc(C(C)C)c(CC2CCCCC2)n1COCc1ccccc1` displayed an IC50 in experiment [1] of 260 nM.
